Test results reported in PubChem BioAssay (NCI).
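All cell lines were grown in 96-well plates and treated with compound for 48 hours. GI50: concentration for 50% inhibition of growth. Definition used: TGI = concentration required for complete inhibition of growth.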 Where a SMILES comes first, the peptide text is derived from it.

Legend:
Assay in all cases: NCI tumour cell line growth inhibition, 48 h
MOLT-4 leukemia = tested on: MOLT-4 leukemia
NCI-H226 lung = tested on: NCI-H226 lung
NCI-H23 lung = tested on: NCI-H23 lung
NCI-H460 lung = tested on: NCI-H460 lung
NCI-H522 lung = tested on: NCI-H522 lung
NCI/ADR-RES ovarian = tested on: NCI/ADR-RES ovarian
OVCAR-3 ovarian = tested on: OVCAR-3 ovarian
OVCAR-4 ovarian = tested on: OVCAR-4 ovarian
OVCAR-5 ovarian = tested on: OVCAR-5 ovarian
OVCAR-8 ovarian = tested on: OVCAR-8 ovarian
PC-3 prostate = tested on: PC-3 prostate
RPMI-8226 leukemia = tested on: RPMI-8226 leukemia
RXF 393 renal = tested on: RXF 393 renal
RXF-631 renal = tested on: RXF-631 renal
SF-268 CNS = tested on: SF-268 CNS
SF-295 CNS = tested on: SF-295 CNS
SF-539 CNS = tested on: SF-539 CNS
SK-MEL-2 melanoma = tested on: SK-MEL-2 melanoma
SK-MEL-28 melanoma = tested on: SK-MEL-28 melanoma
SK-MEL-5 melanoma = tested on: SK-MEL-5 melanoma
SK-OV-3 ovarian = tested on: SK-OV-3 ovarian
SN12C renal = tested on: SN12C renal
SNB-19 CNS = tested on: SNB-19 CNS
SNB-75 CNS = tested on: SNB-75 CNS
SNB-78 CNS = tested on: SNB-78 CNS
SR leukemia = tested on: SR leukemia
SW-620 colon = tested on: SW-620 colon
T-47D breast = tested on: T-47D breast
U251 CNS = tested on: U251 CNS
UACC-257 melanoma = tested on: UACC-257 melanoma
UACC-62 melanoma = tested on: UACC-62 melanoma
UO-31 renal = tested on: UO-31 renal
XF 498 CNS = tested on: XF 498 CNS

CC(C)CC(NC(=O)C(CC(C)C)NC(=O)C(Cc1cnc[nH]1)NC(=O)C(C)NC(=O)C(NC(=O)C(C)NC(=O)C(Cc1c[nH]c2ccccc12)NC(=O)C(CCC(=O)O)NC(=O)C(N)Cc1ccccc1)C(C)C)C(N)=O (stereo unspecified) (H-FEWAVAHLL-NH2; configuration not given here)
TGI (MOLT-4 leukemia): > 100 µM
TGI (NCI-H226 lung): > 12.5 µM
GI50 (NCI-H23 lung): > 100 µM
TGI (NCI-H23 lung): > 100 µM
GI50 (NCI-H460 lung): > 100 µM
TGI (NCI-H460 lung): > 100 µM
TGI (NCI-H522 lung): > 12.5 µM
TGI (NCI/ADR-RES ovarian): > 12.5 µM
GI50 (OVCAR-3 ovarian): > 100 µM
TGI (OVCAR-3 ovarian): > 100 µM
GI50 (OVCAR-4 ovarian): > 100 µM
TGI (OVCAR-4 ovarian): > 100 µM
TGI (OVCAR-5 ovarian): > 12.5 µM
GI50 (OVCAR-8 ovarian): > 100 µM
TGI (OVCAR-8 ovarian): > 100 µM
TGI (PC-3 prostate): > 12.5 µM
GI50 (RPMI-8226 leukemia): > 100 µM
TGI (RPMI-8226 leukemia): > 100 µM
GI50 (RXF 393 renal): > 100 µM
TGI (RXF 393 renal): > 100 µM
TGI (RXF-631 renal): > 100 µM
TGI (SF-268 CNS): > 12.5 µM
GI50 (SF-295 CNS): > 100 µM
TGI (SF-295 CNS): > 100 µM
GI50 (SF-539 CNS): > 100 µM
TGI (SF-539 CNS): > 100 µM
GI50 (SK-MEL-2 melanoma): > 100 µM
TGI (SK-MEL-2 melanoma): > 100 µM
TGI (SK-MEL-28 melanoma): > 100 µM
TGI (SK-MEL-5 melanoma): > 12.5 µM
GI50 (SK-OV-3 ovarian): > 100 µM
TGI (SK-OV-3 ovarian): > 100 µM
GI50 (SN12C renal): > 100 µM
TGI (SN12C renal): > 100 µM
TGI (SNB-19 CNS): > 100 µM
TGI (SNB-75 CNS): > 100 µM
TGI (SNB-78 CNS): > 100 µM
GI50 (SR leukemia): > 100 µM
TGI (SR leukemia): > 100 µM
GI50 (SW-620 colon): > 100 µM
TGI (SW-620 colon): > 100 µM
TGI (T-47D breast): > 12.5 µM
GI50 (U251 CNS): > 100 µM
TGI (U251 CNS): > 100 µM
GI50 (UACC-257 melanoma): > 100 µM
TGI (UACC-257 melanoma): > 100 µM
GI50 (UACC-62 melanoma): > 100 µM
TGI (UACC-62 melanoma): > 100 µM
GI50 (UO-31 renal): 70.9 µM
TGI (UO-31 renal): > 100 µM
TGI (XF 498 CNS): > 100 µM
